Experimental data reported in the NIST ThermoML archive (doi:10.1021/je500067f).
Numbers after ± are expanded uncertainties.

Details: 101.33 kPa, Liquid; for viscosity: Capillary tube (Ostwald / Ubbelohde) method; for mass density: Pycnometric method

C[S+](C)[O-] [dimethyl sulfoxide]
Details	mass density [kg/m3]	viscosity [mPa·s]
298.15 K	1095.2 ± 0.6	2 ± 0.02
303.15 K	1090.6 ± 0.6	1.8 ± 0.02
308.15 K	1085.9 ± 0.6	1.61 ± 0.02
313.15 K	1081.3 ± 0.6	1.44 ± 0.01
318.15 K	1075.3 ± 0.6	1.33 ± 0.01
